Assay results published in the NIST ThermoML archive (doi:10.1021/acs.jced.6b00269).
± gives the expanded uncertainty stated by the source.

Settings: for viscosity / mass density: 101.33 kPa, Liquid; for viscosity: Cone and plate viscometry; for mass density: Vibrating tube method; for Glass transition temperature: DSC

CCC=C[P+](CC)(CC)CC.O=S(=O)([N-]S(=O)(=O)C(F)(F)F)C(F)(F)F
Settings | Normal melting temperature [°C]
Crystal, DTA | 49 ± 2

CCCCCCCCCCCCCC[P+](CCCCCC)(CCCCCC)CCCCCC.O=S(=O)([N-]S(=O)(=O)C(F)(F)F)C(F)(F)F
Settings | Glass transition temperature [°C] | mass density [kg/m3] | viscosity [mPa·s]
– | -82 ± 2 | – | –
278.15 K | – | – | 1210 ± 110
283.15 K | – | 1076.1 ± 6.3 | 841 ± 71
288.15 K | – | 1072.4 ± 6.2 | 594 ± 48
293.15 K | – | 1068.8 ± 6.2 | 430 ± 33
295.15 K | – | 1067.3 ± 6.2 | –
298.15 K | – | 1065.1 ± 6.1 | 318 ± 24
303.15 K | – | 1061.5 ± 6.1 | 241 ± 17
308.15 K | – | 1057.9 ± 6.1 | 185 ± 13
313.15 K | – | 1054.4 ± 6 | 145 ± 10
318.15 K | – | 1050.8 ± 6 | 115 ± 8
323.15 K | – | 1047.3 ± 5.9 | 92 ± 6
328.15 K | – | 1043.7 ± 5.9 | 76 ± 5
333.15 K | – | 1040.1 ± 5.9 | 63 ± 4
338.15 K | – | 1036.6 ± 5.8 | –
343.15 K | – | 1033 ± 5.8 | –
348.15 K | – | 1029.5 ± 5.7 | –
353.15 K | – | 1026 ± 5.7 | –

CCCCCCCCSC(N(C)C)=[N+](C)C.O=S(=O)([N-]S(=O)(=O)C(F)(F)F)C(F)(F)F
Settings | Glass transition temperature [°C] | mass density [kg/m3] | viscosity [mPa·s]
– | -82 ± 2 | – | –
278.15 K | – | – | 356 ± 27
283.15 K | – | 1309.6 ± 9.4 | 254 ± 19
288.15 K | – | 1305.2 ± 9.3 | 186 ± 13
293.15 K | – | 1301 ± 9.2 | 140 ± 10
295.15 K | – | 1299.3 ± 9.2 | –
298.15 K | – | 1296.7 ± 9.2 | 108 ± 7
303.15 K | – | 1292.4 ± 9.1 | 85 ± 6
308.15 K | – | 1288.2 ± 9 | 69 ± 5
313.15 K | – | 1284 ± 9 | 56 ± 4
318.15 K | – | 1279.7 ± 8.9 | –
323.15 K | – | 1275.5 ± 8.9 | –
328.15 K | – | 1271.3 ± 8.8 | –
333.15 K | – | 1267.1 ± 8.8 | –
338.15 K | – | 1262.9 ± 8.7 | –
343.15 K | – | 1258.7 ± 8.6 | –
348.15 K | – | 1254.6 ± 8.6 | –
353.15 K | – | 1250.4 ± 8.5 | –

CCCCCCSC(N(C)C)=[N+](C)C.O=S(=O)([N-]S(=O)(=O)C(F)(F)F)C(F)(F)F
Settings | Glass transition temperature [°C] | mass density [kg/m3] | viscosity [mPa·s]
– | -82 ± 2 | – | –
278.15 K | – | – | 268 ± 20
283.15 K | – | 1352.2 ± 10 | 193 ± 14
288.15 K | – | 1347.8 ± 9.9 | 143 ± 10
293.15 K | – | 1343.4 ± 9.8 | 109 ± 7
295.15 K | – | 1341.6 ± 9.8 | –
298.15 K | – | 1339 ± 9.8 | 85 ± 6
303.15 K | – | 1334.6 ± 9.7 | 68 ± 5
308.15 K | – | 1330.2 ± 9.7 | 55 ± 4
313.15 K | – | 1325.8 ± 9.6 | –
318.15 K | – | 1321.5 ± 9.5 | –
323.15 K | – | 1317.1 ± 9.5 | –
328.15 K | – | 1312.8 ± 9.4 | –
333.15 K | – | 1308.5 ± 9.3 | –
338.15 K | – | 1304.2 ± 9.3 | –
343.15 K | – | 1299.8 ± 9.2 | –
348.15 K | – | 1295.6 ± 9.2 | –
353.15 K | – | 1291.3 ± 9.1 | –

CCCCCC[n+]1ccn(C)c1.O=S(=O)([N-]S(=O)(=O)C(F)(F)F)C(F)(F)F
Settings | mass density [kg/m3] | viscosity [mPa·s]
278.15 K | – | 203 ± 14
283.15 K | 1386.6 ± 10 | 150 ± 10
288.15 K | 1382.1 ± 10 | 113 ± 8
293.15 K | 1377.5 ± 10 | 87 ± 6
295.15 K | 1375.7 ± 10 | –
298.15 K | 1372.9 ± 10 | 68 ± 5
303.15 K | 1368.4 ± 10 | 55 ± 4
308.15 K | 1363.8 ± 10 | –
313.15 K | 1359.3 ± 10 | –
318.15 K | 1354.8 ± 10 | –
323.15 K | 1350.3 ± 10 | –
328.15 K | 1345.8 ± 9.9 | –
333.15 K | 1341.3 ± 9.8 | –
338.15 K | 1336.8 ± 9.8 | –
343.15 K | 1332.4 ± 9.7 | –
348.15 K | 1327.9 ± 9.6 | –
353.15 K | 1323.5 ± 9.6 | –

CCCC[S+]1CCCC1.O=S(=O)([N-]S(=O)(=O)C(F)(F)F)C(F)(F)F
Settings | Glass transition temperature [°C] | mass density [kg/m3] | viscosity [mPa·s]
– | -83 ± 2 | – | –
278.15 K | – | – | 284 ± 21
283.15 K | – | 1469 ± 12 | 206 ± 15
288.15 K | – | 1464.3 ± 12 | 153 ± 11
293.15 K | – | 1459.7 ± 12 | 117 ± 8
295.15 K | – | 1457.8 ± 12 | –
298.15 K | – | 1455 ± 12 | 91 ± 6
303.15 K | – | 1450.4 ± 12 | 73 ± 5
308.15 K | – | 1445.7 ± 11 | 59 ± 4
313.15 K | – | 1441.1 ± 11 | –
318.15 K | – | 1436.5 ± 11 | –
323.15 K | – | 1431.9 ± 11 | –
328.15 K | – | 1427.3 ± 11 | –
333.15 K | – | 1422.7 ± 11 | –
338.15 K | – | 1418.2 ± 11 | –
343.15 K | – | 1413.6 ± 11 | –
348.15 K | – | 1409.1 ± 11 | –
353.15 K | – | 1404.6 ± 11 | –

CCOCc1n(CC)cc[n+]1C.O=S(=O)([N-]S(=O)(=O)C(F)(F)F)C(F)(F)F
Settings | Glass transition temperature [°C] | viscosity [mPa·s]
– | -78 ± 2 | –
278.15 K | – | 207 ± 15
283.15 K | – | 149 ± 10
288.15 K | – | 111 ± 8
293.15 K | – | 85 ± 6
298.15 K | – | 66 ± 4
303.15 K | – | 53 ± 4

CC[P+](CC)(CC)COCCOC.Cc1ncc([N+](=O)[O-])[n-]1
Settings | Glass transition temperature [°C] | viscosity [mPa·s]
– | -75 ± 2 | –
278.15 K | – | 567 ± 45
283.15 K | – | 381 ± 29
288.15 K | – | 264 ± 19
293.15 K | – | 189 ± 13
298.15 K | – | 140 ± 10
303.15 K | – | 106 ± 7
308.15 K | – | 83 ± 6
313.15 K | – | 65 ± 4
318.15 K | – | 53 ± 4

CC[P+](CC)(CC)COCCOC.O=S(=O)([N-]S(=O)(=O)C(F)(F)F)C(F)(F)F
Settings | mass density [kg/m3] | viscosity [mPa·s]
278.15 K | – | 84 ± 6
283.15 K | 1373.9 ± 10 | 65 ± 4
288.15 K | 1369.4 ± 10 | 51 ± 3
293.15 K | 1364.8 ± 10 | –
295.15 K | 1363 ± 10 | –
298.15 K | 1360.3 ± 10 | –
303.15 K | 1355.7 ± 10 | –
308.15 K | 1351.2 ± 10 | –
313.15 K | 1346.8 ± 9.9 | –
318.15 K | 1342.3 ± 9.8 | –
323.15 K | 1337.9 ± 9.8 | –
328.15 K | 1333.4 ± 9.7 | –
333.15 K | 1329 ± 9.6 | –
338.15 K | 1324.6 ± 9.6 | –
343.15 K | 1320.2 ± 9.5 | –
348.15 K | 1315.8 ± 9.4 | –
353.15 K | 1311.5 ± 9.4 | –
